# Measured values: article PMC12419465, “Photoresponsive molecular tweezers modulate Taspase 1 activity” (RSC Chemical Biology, 2025)
# Like-named read-outs stand apart in the source and are kept apart here.
# Experiments:
# [1] = Photoisomerization: photostationary states by 1H NMR, switching cycles by UV-vis; type: physicochemical; details: for PSS E→Z, photostationary state: UV 365 nm; for PSS Z→E, photostationary state: green light 520 nm
# Experimental: Tweezer constructs were synthesized as an E/Z mixture, with a strong preference for the thermodynamically stable E isomer. For photoisomerization, UV-vis spectra of TWAAP and TWAB (50 μM in water) were recorded in their initial state. The constructs were then isomerized to the Z isomer with UV light (λ = 365 nm, 1 min) and back to the E isomer with green light (λ = 520 nm, 5 min). Two light sources were used: UV LED HighPower-LED with 3 W of λ = 365 nm (LED Engin Inc., San Jose, California, US) and a LSC-G HighPower-LED with 3 W of λ = 520 nm (Cree Inc., Durham, North Carolina, US). UV-vis spectroscopy was routinely employed to analyze the tweezer constructs, serving as the method of choice to monitor configurational integrity after multiple switching cycles. More than 10 switching cycles were performed without any loss of configurational integrity. The UV-vis spectra were recorded with a JASCO V-650 double-beam spectrophotometer (JASCO).
# The photophysical properties of AAP tweezers TWAAP0-4 as well as those of AZO tweezers TWAB1-2 were consistent with previous reports on these photoswitches. […] The two isomers are easily distinguished by the significant difference in their absorption bands (Fig. 2 and Fig. S4a, b). […] Irradiation with green light further increases the concentration of the E isomer, as confirmed by both UV/vis and NMR spectra. The switching process can be repeated for over 10 cycles without loss of configurational integrity or photodegradation of the tweezer. […] (Fig. 2 and Table S1).
# Supplementary Table S1. Photostationary states (PSSE→Z and PSSZ→E) and half-life of Z isomers of
# respectively. n.d., not determinable.
# TW construct PSSE→Z [%] PSSZ→E [%] […]
# wildtype Taspase 1 = molecular target: T1, wildtype Taspase 1 (Homo sapiens, UniProt Q9H6P5); assay: Recombinant cleavage assay with GST-MLL2700–2850-GFP-His substrate; type: biochemical; details: for IC50: ligand conc. 10 - 100 µM, 200 nM Taspase 1, 5 µM substrate, n = 3, read-out: IC50 TW (recombinant cleavage, full-length protein); for Difference in inhibitory activity between E and Z isomers (times greater potency of E isomer): particularly at 50 μM
# T1 sequence (Q9H6P5 1-233 limits assumed): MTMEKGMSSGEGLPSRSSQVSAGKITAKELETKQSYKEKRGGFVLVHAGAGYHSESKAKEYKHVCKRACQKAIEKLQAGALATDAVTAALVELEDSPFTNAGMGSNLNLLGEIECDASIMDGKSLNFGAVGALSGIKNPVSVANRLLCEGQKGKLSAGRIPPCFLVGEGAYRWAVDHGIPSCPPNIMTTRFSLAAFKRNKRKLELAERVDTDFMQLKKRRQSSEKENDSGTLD
# T1 sequence (Q9H6P5 234-420 limits assumed): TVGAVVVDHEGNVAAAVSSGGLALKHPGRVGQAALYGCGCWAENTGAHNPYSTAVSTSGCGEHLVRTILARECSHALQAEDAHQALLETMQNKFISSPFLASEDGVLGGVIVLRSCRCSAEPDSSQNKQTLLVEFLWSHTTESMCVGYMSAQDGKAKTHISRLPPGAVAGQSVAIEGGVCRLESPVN
# Experimental: The recombinant cleavage assay employing the recombinant fusion protein GST-MLL2700–2850-GFP-His, which contains the CS2 cleavage site of the Mixed-lineage leukemia (MLL) protein as a substrate for Taspase 1, was performed as described.[9,10]
# Given that Taspase 1's active site is positioned directly at the base of the loop harboring the bipartite NLS (Fig. 1A, and Fig. S1), it is reasonable to expect that our photoswitchable tweezer constructs, which recognize this signal, might also influence proteolytic activity - similar to the inhibition observed with our “first-generation” multivalent ligands.[10] In principle the presence of a sterically demanding artificial ligand may hinder or even completely block substrate binding and subsequent cleavage. To assess this, we employed a well-established in vitro cleavage assay using a recombinant, truncated fusion protein harboring the second cleavage site (CS2) of the Mixed Lineage Leukemia 1 (MLL1) protein, a bona fide Taspase 1 substrate.[39] In this assay, the cleaved and uncleaved substrate fractions of the GST-MLL2700–2850-GFP-His substrate were separated on a Coomassie-stained gel, and signal intensities of the different cleavage bands were quantified (Fig. 7, Fig. S8, and Fig. S9). The addition of recombinant, proteolytically active Taspase 1 (200 nM) led to efficient substrate cleavage, which was inhibited by all photoswitchable tweezer constructs in a concentration-dependent manner. IC50 values for the full series of switchable tweezer constructs ranged from 20 to 50 μM, with measurements taken separately for both E and Z isomers Fig. (S9).
# Fig. 7 Switchable tweezer constructs interfere with Taspase 1 proteolytic activity. Cleavage assay utilizing the cleavage site CS2 from the natural substrate MLL (GST-MLL2700–2850-GFP-His) and active wildtype Taspase 1. Inhibition of proteolysis was evaluated by the relative amount of uncleaved substrate. Briefly, 5 μM recombinant substrate were incubated with 200 nM wildtype Taspase 1-His and increasing concentrations of TWAAP0-4 (10 - 100 μM), pre-irradiated with either UV light (365 nm, violet), or green light (520 nm, green), or solvent only. Proteolytic activity in solvent-treated samples was set to 100%, and data from TWAAP-treated samples were normalized accordingly. IC50 values were determined by densitometric quantification of the cleavage bands from the gels shown in Fig. S9, followed by nonlinear curve fitting. These values were also used to generate the summary bar plots shown on the right. Data are shown as the mean ± SD from three independent experiments. Composed with https://BioRender.com.
# Figure S8. Photoswitchable TWAAP constructs interfere with Taspase 1’s proteolytic activity.
# Cleavage assay utilizing the cleavage site CS2 from the natural substrate MLL (GST -MLL2700-2850-GFP-His, 70 kDa) and active wildtype Taspase 1. Inhibition of proteolysis was evaluated by the relative amount of uncleaved in relation to cleaved substrate (50 kDa and 20 kDa, respectively). Briefly, 5 µM recombinant substrate were incubated with 200 nM wildtype Taspase 1-His and increasing concentrations (10 - 100 µM) of indicated TWAAP irradiated with UV (365 nm, left gel panels) or green light (520 nm, right gel panels). Solvent-treated samples (referred to as untreated, un.) served as reference, and as additional controls, Taspase 1 (-T) was omitted or only Taspase 1 (TASP1) was applied. Representative images of three independent experiments are shown. Composed with […]
# Figure S9. Photoswitchable TWAAB constructs interfere with Taspase 1’s proteolytic activity. Cleavage assay utilizing the cleavage site CS2 from the natural substrate MLL (GST -MLL2700-2850-GFP-His, 70 kDa) and active wildtype Taspase 1. Inhibition of proteolysis was evaluated by the relative amount of uncleaved in relation to cleaved substrate (50 kDa and 20 kDa, respectively).
# Briefly, 5 µM recombinant substrate were incubated with 200 nM wildtype Taspase 1-His and […]
Compound,"PSS E→Z, photostationary state [1]","PSS Z→E, photostationary state [1]",IC50 (wildtype Taspase 1; E isomer),IC50 (wildtype Taspase 1; Z isomer),Difference in inhibitory activity between E and Z isomers (times greater potency of E isomer) (wildtype Taspase 1)
Cc1nn(-c2ccc(-c3cn(CCOP(=O)(O)Oc4c5c(c(OP(=O)(O)O)c6c4C4CC6c6cc7c(cc64)C4CC7c6ccccc64)C4CC5c5cc6c(cc54)C4CC6c5ccccc54)nn3)cc2)c(C)c1N=Nc1ccc(-c2ccc(-c3cn(CCOP(=O)(O)Oc4c5c(c(OP(=O)(O)O)c6c4C4CC6c6cc7c(cc64)C4CC7c6ccccc64)C4CC5c5cc6c(cc54)C4CC6c5ccccc54)nn3)cc2)cc1 [TWAAP3],84%,92%,49.4 µM,41.9 µM,no difference
O=P(O)(O)Oc1c2c(c(OP(=O)(O)OCCn3cc(-c4ccc(N=Nc5ccc(-c6cn(CCOP(=O)(O)Oc7c8c(c(OP(=O)(O)O)c9c7C7CC9c9cc%10c(cc97)C7CC%10c9ccccc97)C7CC8c8cc9c(cc87)C7CC9c8ccccc87)nn6)cc5)cc4)nn3)c3c1C1CC3c3cc4c(cc31)C1CC4c3ccccc31)C1CC2c2cc3c(cc21)C1CC3c2ccccc21 [TWAB1],63%,61%,22.3 µM,17.9 µM,no difference
Cc1nn(Cc2cn(CCOP(=O)(O)Oc3c4c(c(OP(=O)(O)O)c5c3C3CC5c5cc6c(cc53)C3CC6c5ccccc53)C3CC4c4cc5c(cc43)C3CC5c4ccccc43)nn2)c(C)c1N=Nc1ccc(-c2cn(CCOP(=O)(O)Oc3c4c(c(OP(=O)(O)O)c5c3C3CC5c5cc6c(cc53)C3CC6c5ccccc53)C3CC4c4cc5c(cc43)C3CC5c4ccccc43)nn2)cc1 [TWAAP2],94%,77%,17.5 µM,25.4 µM,no difference
Cc1nn(-c2ccc(C#Cc3ccc(-c4cn(CCOP(=O)(O)Oc5c6c(c(OP(=O)(O)O)c7c5C5CC7c7cc8c(cc75)C5CC8c7ccccc75)C5CC6c6cc7c(cc65)C5CC7c6ccccc65)nn4)cc3)cc2)c(C)c1N=Nc1ccc(C#Cc2ccc(-c3cn(CCOP(=O)(O)Oc4c5c(c(OP(=O)(O)O)c6c4C4CC6c6cc7c(cc64)C4CC7c6ccccc64)C4CC5c5cc6c(cc54)C4CC6c5ccccc54)nn3)cc2)cc1 [TWAAP4],67%,97%,24.7 µM,37.9 µM,1.5–1.7 times
Cc1nn(-c2ccc(-n3cc(CCOP(=O)(O)Oc4c5c(c(OP(=O)(O)O)c6c4C4CC6c6cc7c(cc64)C4CC7c6ccccc64)C4CC5c5cc6c(cc54)C4CC6c5ccccc54)nn3)cc2)c(C)c1N=Nc1ccc(-n2cc(CCOP(=O)(O)Oc3c4c(c(OP(=O)(O)O)c5c3C3CC5c5cc6c(cc53)C3CC6c5ccccc53)C3CC4c4cc5c(cc43)C3CC5c4ccccc43)nn2)cc1 [TWAAP0],87%,89%,25.9 µM,44.6 µM,1.5–1.7 times
